Measurements as given in patent US8735141B2, “Vermiculture compositions” (M-I L.L.C., priority 2001, dated 2014).

What was measured:
[1] = Biodegradability (respiration rate and hydrocarbon loss in a reference moist soil); details: base fluids, 1 = most biodegradable
Procedure: (§1) Environmental tests were carried out on the base fluids, several muds, and a few samples of mud-coated cuttings before and after treatment in a bioreactor. The tests consisted of the following: (a) biodegradability (respiration rate and hydrocarbon loss in a reference moist soil); (b) phytoxicity (alfalfa seed emergence and root elongation); (c) earthworm survival; (d) springtail survival; and (e) Microtox (IC-50 on bioluminescent bacterium Photobacterium phosporeum).
Biodegradability and toxicity of Formulations A and N are contrasted with those of typical diesel/CaCl2/barite fluid in Table 4. The leading rate on the test soil in Table 4 was 6% w/w. […] In comparing formulation A with a similar formulation weighted with barite (instead of hematite), biodegradability and toxicity appear to be similar for the two fluids. However, a soil-enhancing iron source is considered desirable for its long-term potential benefits.
Biodegradability (Respiration rate and hydrocarbon loss in moist soil.)

[2] = system: Earthworms (Esenia fetida); test: Earthworm survival; assay type: in vivo; details: base fluids
Procedure: as §1
Earthworms (Esenia fetida) toxicity

alfalfa = test: Alfalfa phytotoxicity (seed emergence, root elongation, shoot mass); assay type: in vivo; details: base fluids; normalized to Control test values of 100
Procedure: as §1
Alfalfa seed emergence and root elongation.

[3] = Toxicity of various base fluids, overall rank; details: 1 = least toxic
Procedure: as §1
One of skill in the art will appreciate that the results of Table 1 indicate that diesel and the branched paraffins are more resistant to rapid biodegradation than the other four fluids.

Substance: Isomerized tetradecene [Isomerized tetradecene C14 (IO)]
- Biodegradability Rank [1]: 4
- Animal Toxicity % Earthworm Survival [2]: 100%
- Alfalfa Phytotoxicity % Root Elongation (alfalfa): 144%
- Alfalfa Phytotoxicity % Seed Emergence (alfalfa): 101%
- Toxicity Rank [3]: 4
